Data on 22 molecules can be found in patent US20240360165A1, “INHIBITORS OF CYCLIN DEPENDENT KINASE 7 (CDK7)” (Syros Pharmaceuticals, Inc., priority 2016, published 2024).

For assay [1], the target named is T1, CDK12 (aa686-1082)/Cyclin K complex (Homo sapiens, UniProt Q9NYV4).
T1 construct: CDK12 (aa686-1082)/Cyclin K complex
The assay is described as follows: CDK12 inhibition assay (Caliper/LabChip EZ Reader kinase assay). It is filed as biochemical. The settings on record: Table 1; CDK12 (aa686-1082)/Cyclin K 50 nM, ATP 2 mM, 3 hr at 27° C.

In another assay the target is CDK2/Cyclin E1 complex (Homo sapiens, UniProt P24941). In words: CDK2 inhibition assay (Caliper/LabChip EZ Reader kinase assay). Type of assay: biochemical. As to conditions: Table 1; CDK2/Cyclin E1 0.5 nM, ATP 2 mM, 35 min at 27° C. The procedure, abridged: (§1)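 Caliper/LabChip EZ Reader mobility-shift assays. CDK9/Cyclin T1 at 8 nM with 2 μM 5-FAM-CDK9tide peptide and 10 mM MgCl2; CDK2/Cyclin E1 at 0.5 nM with 2 μM 5-FAM-CDK7tide and 2 mM MgCl2.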

The target in a further assay is CDK9/Cyclin T1 complex (Homo sapiens, UniProt P50750). In words: CDK9 inhibition assay (Caliper/LabChip EZ Reader kinase assay). It is filed as biochemical. As to conditions: Table 1; CDK9/Cyclin T1 8 nM, ATP 2 mM, 15 min at 27° C. In a few lines:
as §1

Assay [2] has as its target CDK7/Cyclin H/MAT1 complex (Homo sapiens, UniProt P50613). In words: CDK7 inhibition assay (Caliper/LabChip EZ Reader kinase assay). Type of assay: biochemical. As to conditions: Table 1; CDK7/Cyclin H/MAT1 6 nM, ATP 2 mM, 35 min at 27° C. In a few lines: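 A Perkin Elmer Caliper/LabChip EZ Reader (Waltham, MA) platform served as the basis for this CDK7 kinase inhibition assay. The work was carried out by Biortus Biosciences, located in Jiangyin, Jiangsu Province, P.R. of China. Each CDK studied had its own kinase assay, and compounds were evaluated for their ability to block CDK7 activity.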

Another assay relates to HCC70 cells. In words: Inhibition of proliferation of HCC70 cells (CyQUANT Direct Cell Proliferation Assay, 72 hour). It is filed as cell-based, human. As to conditions: read-out: Inhibition of Proliferation of HCC70 Cells (calculated IC50). The procedure: HCC70 cells are a cell line derived from human triple negative breast cancer. […] Known CDK inhibitors dinaciclib or N-((1S,3R)-3-((5-chloro-4-(1H-indol-3-yl) pyrimidin-2-yl)amino)cyclohexyl)-5-((E)-4-(dimethylamino)but-2-enamido)picolinamide and triptolide were used as positive controls. […] The cells were cultured at 37° C. in a humidified chamber in the presence of 5% CO2. Proliferation assays were conducted over a 72 hour time period. CyQUANT® Direct Cell Proliferation Assay (Life Technologies, Chicago, IL USA) was used to assess the anti-proliferative effects of the compounds following manufacturer's directions and utilizing the reagents supplied with the CyQUANT® Direct Cell kit.

Read-outs that look alike come from different tables or passages of the source.

T1 sequence (Q9NYV4 686-1082, species assumed): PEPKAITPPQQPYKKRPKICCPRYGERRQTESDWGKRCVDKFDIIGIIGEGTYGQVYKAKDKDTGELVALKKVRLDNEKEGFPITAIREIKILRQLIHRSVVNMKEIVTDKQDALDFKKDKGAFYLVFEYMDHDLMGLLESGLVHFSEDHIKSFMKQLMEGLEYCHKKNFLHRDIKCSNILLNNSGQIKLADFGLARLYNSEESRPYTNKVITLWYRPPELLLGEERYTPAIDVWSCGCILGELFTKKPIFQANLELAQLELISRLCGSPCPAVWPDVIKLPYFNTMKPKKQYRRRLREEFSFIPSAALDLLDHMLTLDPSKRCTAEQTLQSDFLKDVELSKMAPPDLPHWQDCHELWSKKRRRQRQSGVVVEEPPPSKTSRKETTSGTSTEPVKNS
T1 sequence (O75909 whole entry partner, species assumed, the tested form may be a part): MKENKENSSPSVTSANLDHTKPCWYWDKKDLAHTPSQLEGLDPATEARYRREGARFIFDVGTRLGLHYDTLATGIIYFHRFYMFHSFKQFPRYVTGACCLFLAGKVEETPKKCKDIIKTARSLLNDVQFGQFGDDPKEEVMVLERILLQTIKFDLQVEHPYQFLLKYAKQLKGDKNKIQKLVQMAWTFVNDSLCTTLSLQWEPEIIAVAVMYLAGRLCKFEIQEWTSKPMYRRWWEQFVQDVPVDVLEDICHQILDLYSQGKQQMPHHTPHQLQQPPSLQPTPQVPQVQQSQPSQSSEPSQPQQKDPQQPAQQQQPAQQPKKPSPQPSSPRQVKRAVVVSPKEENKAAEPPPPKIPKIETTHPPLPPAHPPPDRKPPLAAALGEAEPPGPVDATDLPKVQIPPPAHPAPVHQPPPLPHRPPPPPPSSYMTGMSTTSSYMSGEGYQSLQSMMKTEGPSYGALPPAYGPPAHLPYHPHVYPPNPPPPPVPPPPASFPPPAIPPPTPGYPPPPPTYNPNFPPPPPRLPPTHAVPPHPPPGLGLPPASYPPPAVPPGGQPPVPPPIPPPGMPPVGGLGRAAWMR
Sequence of CDK9/Cyclin T1 complex (P50750 whole entry, species assumed): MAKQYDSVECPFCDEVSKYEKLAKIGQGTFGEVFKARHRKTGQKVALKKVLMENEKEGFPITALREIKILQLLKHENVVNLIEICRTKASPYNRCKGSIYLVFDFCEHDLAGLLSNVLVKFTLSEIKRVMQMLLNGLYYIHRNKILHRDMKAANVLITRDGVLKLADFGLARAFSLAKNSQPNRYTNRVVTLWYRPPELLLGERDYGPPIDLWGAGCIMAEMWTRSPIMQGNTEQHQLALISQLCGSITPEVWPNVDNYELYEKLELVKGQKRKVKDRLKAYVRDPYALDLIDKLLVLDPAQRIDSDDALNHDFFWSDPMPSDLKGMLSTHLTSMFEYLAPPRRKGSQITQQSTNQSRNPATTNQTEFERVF
Sequence of CDK9/Cyclin T1 complex (O60563 whole entry partner, species assumed): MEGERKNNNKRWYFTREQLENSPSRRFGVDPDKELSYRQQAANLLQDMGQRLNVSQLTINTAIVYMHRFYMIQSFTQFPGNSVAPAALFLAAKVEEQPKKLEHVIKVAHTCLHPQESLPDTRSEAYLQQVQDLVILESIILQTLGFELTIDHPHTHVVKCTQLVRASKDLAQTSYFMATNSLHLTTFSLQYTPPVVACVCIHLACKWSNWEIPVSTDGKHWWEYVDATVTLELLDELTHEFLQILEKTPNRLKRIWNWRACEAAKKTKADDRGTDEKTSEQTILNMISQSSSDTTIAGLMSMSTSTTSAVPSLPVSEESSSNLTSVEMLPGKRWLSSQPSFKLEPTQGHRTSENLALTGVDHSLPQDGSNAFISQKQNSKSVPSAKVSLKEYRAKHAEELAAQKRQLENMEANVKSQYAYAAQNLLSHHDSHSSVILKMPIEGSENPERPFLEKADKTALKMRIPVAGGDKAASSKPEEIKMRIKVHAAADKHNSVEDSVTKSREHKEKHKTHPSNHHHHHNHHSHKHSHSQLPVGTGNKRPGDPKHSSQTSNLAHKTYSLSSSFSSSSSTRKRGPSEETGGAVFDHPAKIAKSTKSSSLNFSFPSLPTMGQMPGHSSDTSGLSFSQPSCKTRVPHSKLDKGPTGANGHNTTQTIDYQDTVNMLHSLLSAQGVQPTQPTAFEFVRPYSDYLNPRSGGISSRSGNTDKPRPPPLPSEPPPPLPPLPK
Sequence of CDK7/Cyclin H/MAT1 complex (P50613 whole entry, species assumed): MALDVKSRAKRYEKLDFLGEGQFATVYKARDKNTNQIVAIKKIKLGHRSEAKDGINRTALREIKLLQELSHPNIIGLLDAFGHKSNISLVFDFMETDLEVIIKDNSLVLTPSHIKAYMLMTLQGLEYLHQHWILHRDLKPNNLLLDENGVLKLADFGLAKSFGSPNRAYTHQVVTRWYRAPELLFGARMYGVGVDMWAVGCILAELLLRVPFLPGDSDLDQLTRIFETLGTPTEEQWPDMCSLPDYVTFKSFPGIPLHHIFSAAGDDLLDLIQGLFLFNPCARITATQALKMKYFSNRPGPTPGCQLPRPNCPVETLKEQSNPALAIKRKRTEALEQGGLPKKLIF
Sequence of CDK7/Cyclin H/MAT1 complex (P51946 whole entry partner, species assumed): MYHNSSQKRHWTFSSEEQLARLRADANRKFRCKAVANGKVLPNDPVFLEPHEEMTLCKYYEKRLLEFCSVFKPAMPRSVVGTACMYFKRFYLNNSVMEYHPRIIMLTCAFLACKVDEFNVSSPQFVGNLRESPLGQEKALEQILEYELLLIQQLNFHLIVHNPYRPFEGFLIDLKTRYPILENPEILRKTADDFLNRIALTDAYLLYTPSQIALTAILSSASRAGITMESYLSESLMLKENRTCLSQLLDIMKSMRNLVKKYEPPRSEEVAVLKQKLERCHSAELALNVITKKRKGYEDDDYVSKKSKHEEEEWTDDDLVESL
Sequence of CDK7/Cyclin H/MAT1 complex (P51948 whole entry partner, species assumed): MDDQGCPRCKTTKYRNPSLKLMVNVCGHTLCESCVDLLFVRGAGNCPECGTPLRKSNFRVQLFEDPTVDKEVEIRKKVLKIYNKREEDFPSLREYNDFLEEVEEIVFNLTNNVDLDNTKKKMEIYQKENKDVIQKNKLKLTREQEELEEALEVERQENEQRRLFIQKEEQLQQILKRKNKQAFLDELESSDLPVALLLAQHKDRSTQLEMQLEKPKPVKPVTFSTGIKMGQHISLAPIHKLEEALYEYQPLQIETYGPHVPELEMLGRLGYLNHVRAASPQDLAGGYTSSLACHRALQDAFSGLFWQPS

As to `OCc1cncc(-c2ccc3c(-c4nc(N[C@H]5CCCNC5)ncc4C(F)(F)F)c[nH]c3c2)c1` [Compound 318], the IC50 in assay [1] was 200 to 5000 nM; against CDK2/Cyclin E1 complex, 200 to 5000 nM; at CDK9/Cyclin T1 complex it was 200 to 5000 nM; in assay [2] it was under 20 nM; in the assay with HCC70 cells, 100 to 1000 nM.

As to `Cn1cc(-c2ccc3c(-c4nc(NC5CCCNC5)ncc4C(F)(F)F)c[nH]c3c2)ccc1=O` (centres unmarked) [Compound 321], the IC50 in assay [1] is 200 to 5000 nM; against CDK2/Cyclin E1 complex it was over 5000 nM; against CDK9/Cyclin T1 complex, over 5000 nM; in assay [2], under 20 nM; in the assay with HCC70 cells (Homo sapiens, HCC70, 72 h), 100 to 1000 nM.

For `OCc1ncccc1-c1ccc2c(-c3nc(N[C@H]4CCCNC4)ncc3C(F)(F)F)c[nH]c2c1` [Compound 323], the IC50 in assay [1] is 200 to 5000 nM; against CDK2/Cyclin E1 complex, 200 to 5000 nM; against CDK9/Cyclin T1 complex it was over 5000 nM; in assay [2] it was under 20 nM; in the assay on HCC70 cells, 100 to 1000 nM.

On to `FC(F)(F)c1cnc(N[C@H]2CCCNC2)nc1-c1c[nH]c2cc(-c3cnccn3)ccc12` [Compound 328], for which the IC50 in assay [1] is 200 to 5000 nM; against CDK2/Cyclin E1 complex, 200 to 5000 nM; against CDK9/Cyclin T1 complex, 200 to 5000 nM; in assay [2], under 20 nM; in the assay with HCC70 cells, under 100 nM.

Regarding `Cc1noc(C)c1-c1ccc2c(-c3nc(N[C@H]4CCCNC4)ncc3C(F)(F)F)c[nH]c2c1` [Compound 330], the IC50 in assay [1] was 200 to 5000 nM; on CDK2/Cyclin E1 complex, 200 to 5000 nM; against CDK9/Cyclin T1 complex, 200 to 5000 nM; in assay [2], under 20 nM; in the assay on HCC70 cells, under 100 nM.

As for `FC(F)(F)c1cnc(N[C@H]2CCCNC2)nc1-c1c[nH]c2cc(-c3nccs3)ccc12` [Compound 332], the IC50 in assay [1] is 200 to 5000 nM; against CDK2/Cyclin E1 complex, 200 to 5000 nM; on CDK9/Cyclin T1 complex, 200 to 5000 nM; in assay [2] it was under 20 nM; in the assay on HCC70 cells, under 100 nM.

As to `O=C1CCc2ccc(-c3ccc4c(-c5nc(N[C@H]6CCCNC6)ncc5C(F)(F)F)c[nH]c4c3)cc2N1` [Compound 334], the IC50 in assay [1] was 200 to 5000 nM; against CDK2/Cyclin E1 complex, 200 to 5000 nM; at CDK9/Cyclin T1 complex it was 200 to 5000 nM; in assay [2] it was 20 to 200 nM; in the assay on HCC70 cells, 100 to 1000 nM.

For `Cc1ccncc1-c1ccc2c(-c3nc(NC4CCCNC4)ncc3C(F)(F)F)c[nH]c2c1` (centres unmarked) [Compound 336], the IC50 in assay [1] was 200 to 5000 nM; at CDK2/Cyclin E1 complex it was 200 to 5000 nM; against CDK9/Cyclin T1 complex, 200 to 5000 nM; in assay [2] it was under 20 nM; with HCC70 cells (Homo sapiens, HCC70, 72 h), under 100 nM.

As to `CC(=O)NCc1cccc(-c2ccc3c(-c4nc(N[C@H]5CCCNC5)ncc4C(F)(F)F)c[nH]c3c2)c1` [Compound 338], the IC50 in assay [1] is 200 to 5000 nM; on CDK2/Cyclin E1 complex, 200 to 5000 nM; on CDK9/Cyclin T1 complex, 200 to 5000 nM; in assay [2] it was 20 to 200 nM; in the assay with HCC70 cells, 100 to 1000 nM.

As to `FC(F)(F)c1cnc(N[C@H]2CCCNC2)nc1-c1c[nH]c2cc(-c3ccnc4ccccc34)ccc12` [Compound 339], the IC50 in assay [1] was 200 to 5000 nM; against CDK2/Cyclin E1 complex, over 5000 nM; at CDK9/Cyclin T1 complex, over 5000 nM; in assay [2], 20 to 200 nM; with HCC70 cells, 1000 to 5000 nM.

Consider `FC(F)(F)c1cnc(N[C@H]2CCCNC2)nc1-c1c[nH]c2cc(-c3ccc4c(c3)OCCO4)ccc12` [Compound 342], for which the IC50 in assay [1] is 200 to 5000 nM; on CDK2/Cyclin E1 complex, over 5000 nM; against CDK9/Cyclin T1 complex, over 5000 nM; in assay [2], 20 to 200 nM; in the assay on HCC70 cells, 1000 to 5000 nM.

In the case of `FC(F)(F)c1cnc(N[C@H]2CCCNC2)nc1-c1c[nH]c2cc(-c3ccc4ncsc4c3)ccc12` [Compound 343], the IC50 was 200 to 5000 nM in assay [1]; 200 to 5000 nM against CDK2/Cyclin E1 complex; 200 to 5000 nM against CDK9/Cyclin T1 complex; 20 to 200 nM in assay [2]; 100 to 1000 nM with HCC70 cells.

For `FC(F)(F)c1cnc(N[C@H]2CCCNC2)nc1-c1c[nH]c2cc(-c3cccc4cnccc34)ccc12` [Compound 344], the IC50 in assay [1] was 200 to 5000 nM; at CDK2/Cyclin E1 complex, 200 to 5000 nM; on CDK9/Cyclin T1 complex, over 5000 nM; in assay [2], 20 to 200 nM; with HCC70 cells, 100 to 1000 nM.

For the molecule `Fc1cccc(-c2ccc3c(-c4nc(N[C@H]5CCCNC5)ncc4C(F)(F)F)c[nH]c3c2)c1` [Compound 345], the IC50 in assay [1] was over 5000 nM; on CDK2/Cyclin E1 complex, over 5000 nM; on CDK9/Cyclin T1 complex, over 5000 nM; in assay [2], 200 to 5000 nM; with HCC70 cells (Homo sapiens, HCC70, 72 h), 1000 to 5000 nM.

Consider `CC(C)S(=O)(=O)c1ccc2c(-c3nc(N[C@H]4CCCNC4)ncc3C(F)(F)F)c[nH]c2c1` [Compound 346, 4-(6-isopropylsulfonyl-1H-indol-3-yl)-N-[(3S)-3-piperidyl]-5-(trifluoromethyl) pyrimidin-2-amine], for which the IC50 in assay [1] was 200 to 5000 nM; at CDK2/Cyclin E1 complex, 200 to 5000 nM; against CDK9/Cyclin T1 complex, 200 to 5000 nM; in assay [2] it was 20 to 200 nM; in the assay with HCC70 cells (Homo sapiens, HCC70, 72 h) it was 100 to 1000 nM.

In the case of `O=C(c1ccc2c(-c3nc(N[C@H]4CCCNC4)ncc3C(F)(F)F)c[nH]c2c1)N1C[C@@H](O)C(F)(F)C1` [Compound 349, [(4R)-3,3-difluoro-4-hydroxy-pyrrolidin-1-yl]-[3-[2-[[(3S)-3-piperidyl]amino]-5-(trifluoromethyl)pyrimidin-4-yl]-1H-indol-6-yl] methanone], the IC50 is 200 to 5000 nM in assay [1]; 200 to 5000 nM on CDK2/Cyclin E1 complex; 200 to 5000 nM against CDK9/Cyclin T1 complex; under 20 nM in assay [2]; 100 to 1000 nM with HCC70 cells (Homo sapiens, HCC70, 72 h).

As to `CC1(C)CC[C@H](Nc2ncc(C(F)(F)F)c(-c3c[nH]c4cc(C#N)ccc34)n2)CN1` [Compound 350, (S)-3-(2-((6,6-dimethylpiperidin-3-yl)amino)-5-(trifluoromethyl)pyrimidin-4-yl)-1H-indole-6-carbonitrile], the IC50 in assay [1] is 200 to 5000 nM; against CDK2/Cyclin E1 complex, over 5000 nM; on CDK9/Cyclin T1 complex, over 5000 nM; in assay [2], 20 to 200 nM; with HCC70 cells (Homo sapiens, HCC70, 72 h), 100 to 1000 nM.

Take `N#Cc1ccc2c(-c3nc(N[C@@H]4CNCC[C@H]4F)ncc3C(F)(F)F)c[nH]c2c1` [Compound 351]: the IC50 is 200 to 5000 nM in assay [1]; 200 to 5000 nM at CDK2/Cyclin E1 complex; 200 to 5000 nM against CDK9/Cyclin T1 complex; under 20 nM in assay [2]; under 100 nM in the assay on HCC70 cells (Homo sapiens, HCC70, 72 h).

For `CP(C)(=O)c1cccc2c(-c3nc(N[C@H]4CCCNC4)ncc3C(F)(F)F)c[nH]c12` [Compound 352, (S)-dimethyl(3-(2-(piperidin-3-ylamino)-5-(trifluoromethyl)pyrimidin-4-yl)-1H-indol-7-yl)phosphine oxide], the IC50 in assay [1] was over 5000 nM; against CDK2/Cyclin E1 complex, over 5000 nM; on CDK9/Cyclin T1 complex it was over 5000 nM; in assay [2], over 5000 nM; with HCC70 cells (Homo sapiens, HCC70, 72 h) it was 1000 to 5000 nM.

Regarding `CP(C)(=O)c1ccc2c(-c3nc(N[C@H]4CCCNC4)ncc3C(F)(F)F)c[nH]c2c1` [Compound 354], the IC50 is 200 to 5000 nM in assay [1]; over 5000 nM at CDK2/Cyclin E1 complex; over 5000 nM at CDK9/Cyclin T1 complex; 20 to 200 nM in assay [2]; 1000 to 5000 nM with HCC70 cells (Homo sapiens, HCC70, 72 h).

Regarding `N#Cc1ccc2c(-c3nc(N[C@@H]4CNCC[C@H]4O)ncc3C(F)(F)F)c[nH]c2c1` [Compound 355], the IC50 in assay [1] was 200 to 5000 nM; on CDK2/Cyclin E1 complex, over 5000 nM; on CDK9/Cyclin T1 complex it was over 5000 nM; in assay [2], 20 to 200 nM; with HCC70 cells (Homo sapiens, HCC70, 72 h) it was 100 to 1000 nM.

Turning to `CCc1cnc(N[C@H]2CCCNC2)nc1-c1c[nH]c2c(S(=O)(=O)C(C)C)cccc12` [Compound 356], the IC50 in assay [1] was over 5000 nM; at CDK2/Cyclin E1 complex, over 5000 nM; against CDK9/Cyclin T1 complex, over 5000 nM; in assay [2], 20 to 200 nM; in the assay with HCC70 cells it was 100 to 1000 nM.
